In one assay the test system is A549. In words: Cell-based assay, anti-proliferative activity (Cell Counting Kit-8, 72 hours). As to conditions: Homo sapiens, read-out: IC50 (μM) A549. In short, it runs like this: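 Growth read-out after inhibitor treatment of plated cells; potency expressed as IC50.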
For a further assay, the system named is CCD-18Co. The assay is described as above. The settings on record: Homo sapiens, read-out: IC50 (μM) CCD-18Co. In short, it runs like this: (§1)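 Anti-proliferative IC50 obtained from 96-well cultures treated 72 h with inhibitor at 0–100 micro-M, growth assessed by a CCK-8 colorimetric readout.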
Another assay concerns HCT-116. The assay is described as above. The settings on record: Homo sapiens, read-out: IC50 (μM) HCT-116. Summed up: as §1
The test system of another assay is HFL1. Described as above. As to conditions: Homo sapiens, read-out: IC50 (μM) HFL1. Summed up: as §1
The target of a further assay is SUV39H2 (Homo sapiens (Human), UniProt Q9H5I1). As to conditions: read-out: IC50 (μM) Suv 39H2 assay; enzyme assay.
The mark [1] stands for this setting: A549 cells, Cell Counting Kit-8, 72 hours.
[2] abbreviates: CCD-18Co cells, Cell Counting Kit-8, 72 hours.
The mark [3] stands for this setting: HCT-116 cells, Cell Counting Kit-8, 72 hours.
[4] abbreviates: HFL1 cells, Cell Counting Kit-8, 72 hours.

Read-outs that look alike come from different tables or passages of the source.

SUV39H2, sequence (Q9H5I1 whole entry): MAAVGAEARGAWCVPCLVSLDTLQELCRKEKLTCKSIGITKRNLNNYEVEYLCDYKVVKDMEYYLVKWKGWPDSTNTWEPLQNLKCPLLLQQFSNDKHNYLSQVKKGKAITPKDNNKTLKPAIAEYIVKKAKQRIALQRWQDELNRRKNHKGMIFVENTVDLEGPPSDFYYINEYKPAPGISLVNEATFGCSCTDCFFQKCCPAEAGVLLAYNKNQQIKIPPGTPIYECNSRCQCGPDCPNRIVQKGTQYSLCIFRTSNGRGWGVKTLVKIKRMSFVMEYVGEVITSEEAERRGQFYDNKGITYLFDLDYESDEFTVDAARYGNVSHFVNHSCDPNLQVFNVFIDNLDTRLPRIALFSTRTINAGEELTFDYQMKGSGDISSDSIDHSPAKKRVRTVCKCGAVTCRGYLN

As usually defined, the IC50 is the concentration that gives 50% inhibition. As to `COc1cc(OC2CCCC2)c(-c2cn3ccc(N4CCOCC4)cc3n2)cc1Cl` [Example 90, 4-(2-(5-chloro-2-(cyclopentyloxy)-4-methoxyphenyl)imidazo[1,2-a]-pyridin-7-yl)morpholine], the IC50 was 7.1 µM with A549 (setting [1]); 6 µM in the assay on CCD-18Co (setting [2]); 4.7 µM with HCT-116 (setting [3]); 3.9 µM in the assay with HFL1 (setting [4]); 0.0584 µM on SUV39H2.

Consider `COC(=O)NCCNc1cn2cc(-c3cc(Cl)c(OC)cc3OC)nc2cc1OC` [Example 91, methyl (2-((2-(5-chloro-2,4-dimethoxyphenyl)-7-methoxyimidazo[1,2-a]-pyridin-6-yl)amino)ethyl)carbamate], for which the IC50 in the assay on A549 (setting [1]) was found to be 3.1 µM; in the assay with CCD-18Co (setting [2]), 4.7 µM; in the assay on HCT-116 (setting [3]) it was 2.2 µM; in the assay with HFL1 (setting [4]) it was 2.9 µM; on SUV39H2, 0.0263 µM.

As for `COc1cc(OC)c(-c2cn3ccc(N4CCC(N(C)C)CC4)cc3n2)cc1Cl` [Example 92, 1-(2-(5-chloro-2,4-dimethoxyphenyl)imidazo[1,2-a]pyridin-7-yl)-N,N-dimethylpiperidin-4-amine], the IC50 with A549 (setting [1]) was determined as 6 µM; with CCD-18Co (setting [2]), 8.8 µM; in the assay on HCT-116 (setting [3]) it was 7 µM; in the assay with HFL1 (setting [4]) it was 5.5 µM; at SUV39H2 it was 0.0135 µM.

Take `COc1cc(OC)c(-c2cn3ccc(N4CCOCC4)cc3n2)cc1C#N` [Example 93, 2,4-Dimethoxy-5-(7-morpholinoimidazo[1,2-a]pyridin-2-yl)benzonitrile]: the concentration for half-maximal inhibition (IC50) with A549 (A549, 72 h) was determined as 6.4 µM; in the assay with CCD-18Co (CCD-18Co, 72 h), 6.3 µM; in the assay on HCT-116 (HCT-116, 72 h), 6.4 µM; in the assay on HFL1 (HFL1, 72 h) it was 9.6 µM; at SUV39H2, 0.0119 µM.

For the compound `COc1cc(OCCN(C)C)c(-c2cn3ccc(N4CCOCC4)cc3n2)cc1Cl` [Example 98, 2-(4-chloro-5-methoxy-2-(7-morpholinoimidazo[1,2-a]pyridin-2-yl)-phenoxy)-N,N-dimethylethanamine], the concentration for half-maximal inhibition (IC50) came to 22 µM in the assay with A549 (setting [1]); 9.9 µM in the assay on CCD-18Co (setting [2]); 13 µM in the assay with HCT-116 (setting [3]); 15 µM in the assay with HFL1 (setting [4]); 0.0372 µM on SUV39H2.

In the case of `COc1cc(OC)c(-c2cn3cc(C4=CCNCC4)c(N4CCOCC4)cc3n2)cc1Cl` [Example 101, 4-(2-(5-chloro-2,4-dimethoxyphenyl)-6-(1,2,3,6-tetrahydropyridin-4-yl)imidazo[1,2-a]pyridin-7-yl)morpholine], the IC50 was determined as 8.3 µM in the assay on A549 (setting [1]); 6.6 µM in the assay with CCD-18Co (setting [2]); 8.6 µM in the assay on HCT-116 (setting [3]); 7.5 µM in the assay with HFL1 (setting [4]); 0.0105 µM at SUV39H2.

In the case of `COC(=O)N1CC=C(c2ccn3cc(-c4cc(Cl)c(OC)cc4OC)nc3c2)CC1` [Example 102, methyl 4-[2-(5-chloro-2,4-dimethoxyphenyl)imidazo[1,2-a]pyridin-7-yl]-5,6-dihydropyridine-1(2H)-carboxylate], the IC50 in the assay with A549 (setting [1]) came out at 1.6 µM; in the assay with CCD-18Co (setting [2]) it was 2.8 µM; in the assay with HCT-116 (setting [3]), 1.9 µM; in the assay with HFL1 (setting [4]) it was 2.3 µM; on SUV39H2, 0.0756 µM.

In the case of `COCCN1CCN(c2ccn3cc(-c4cc(Cl)c(OC)cc4OC)nc3c2)CC1` [Example 105, 2-(5-chloro-2,4-dimethoxyphenyl)-7-(4-(2-methoxyethyl)piperazin-1-yl)imidazo[1,2-a]pyridine], the IC50 with A549 (setting [1]) was found to be 7.2 µM; in the assay with CCD-18Co (setting [2]) it was 8.1 µM; in the assay on HCT-116 (setting [3]) it was 7 µM; with HFL1 (setting [4]) it was 8.3 µM; at SUV39H2, 0.0111 µM.

For the compound `COc1cc(OC)c(-c2cn3ccc(N4CCN(C)CC4)cc3n2)cc1Cl` [Example 106, 2-(5-chloro-2,4-dimethoxyphenyl)-7-(4-methylpiperazin-1-yl)imidazo[1,2-a]pyridine], the IC50 in the assay on A549 (setting [1]) was 6.3 µM; with CCD-18Co (setting [2]) it was 6.8 µM; with HCT-116 (setting [3]), 6.8 µM; with HFL1 (setting [4]) it was 3.9 µM; on SUV39H2, 0.0167 µM.
